Source: paper PMC4838876, “Multivalent display of minimal Clostridium difficile glycan epitopes mimics antigenic properties of larger glycans” (Nature Communications, 2016)

Tested on: mAb 2C5
Experiment: Interaction Map (IM) analysis based on SPR traces
Format: binding, mouse
Excerpt: Pentasaccharide 1 was bound with about 100-fold lower KD values than the minimal glycan epitope 3. This stronger binding may have been due to avidity (re-binding) effects, as 3 is contained twice in 1, or by higher affinity. To address this question, we compared the binding properties by IM analysis based on SPR traces. […] Both antigens interacted with mAb 2C5 in a 1:1-like manner, indicated by one dominant peak in the IM plots. Therefore, stronger antibody binding to 1 was due to increased affinity, not avidity, which would be characterized by differences in off-rates and additional peaks.
Figure 7 IM and thermodynamic analysis of glycan–mAb interactions and conformation of 1. (a) IM analysis. The heat maps represent on- and off-rates of mAb 2C5 to 1 (upper) and 3 (lower). (b) Thermograms acquired using 7 μM of mAb 2C5 and titrating 250 μM of 1 (left) or 3 mM of 3 (right) at 25 °C. Thermodynamic parameters were inferred by nonlinear least-square fits of the data points. (c) Summary of thermodynamic parameters for 1 and 3 interacting with mAbs 2C5 and 10A1. Bars represent mean±s.e.m. of two independent measurements. See Supplementary Fig. 6 for details. (d) One-dimensional proton NMR spectrum, and 2D zTOCSY and NOE spectroscopy (NOESY) NMR spectra of 1 showing the coupled protons to the anomeric protons of the five residues with numbering according to the structure shown in e. […]

Compound | on-rate
C[C@@H]1O[C@@H](O[C@@H]2[C@@H](O)[C@H](O[C@H]3[C@H](O[C@@H]4O[C@@H](C)[C@H](O)[C@@H](O)[C@H]4O)[C@@H](O)[C@@H](O[C@H]4[C@@H](OCCCCCN)O[C@H](CO)[C@@H](O)[C@@H]4O)O[C@@H]3CO)O[C@H](CO)[C@H]2O)[C@H](O)[C@H](O)[C@H]1O [Compound 1] | 126,000 M^−1 s^−1
C[C@@H]1O[C@@H](O[C@@H]2[C@@H](O)[C@H](OCCCCCN)O[C@H](CO)[C@H]2O)[C@H](O)[C@H](O)[C@H]1O [Compound 3, Rha-(1→3)-Glc] | 250 M⁻¹ s⁻¹
